Numbered stars: 1 amine (or outer) side, 2 acyl side, 3 side chain; on linkers, the order of the positions; unused ones are H or OH. Bridge positions count the residues as written; N and C are the ends. Square brackets hold non-standard residues; d marks the D form. Peptide text beside a SMILES is read from it. * marks the point of attachment. X2 = CN(/C(=C/c1ccc(O)cc1)C(=O)[*:2])[*:1]; aThr = C[C@H](O)[C@H](N)C(=O)O; X1 = CCCCCc1ccccc1CCC(=O)*

The source of these data is patent US5093127A, “Preparation of FR115224 substrate for parenteral administration” (Fujisawa Pharmaceutical Co., Ltd., priority 1989, dated 1992).

For data set [1] the following is noted: 20° C.; cited from earlier work.
The nature of data set [2]: Solubility test of FR115224 substance in water with cyclodextrins. Type of data set: physicochemical. The conditions noted are these: for Solubility of FR115224 substance: distilled water, room temperature. How it is done: FR115224 substance (125 mg) was charged in 13 sample bottles, respectively and distilled water (2.5 ml) was added thereto.
Then, α-cyclodextrin, β-cyclodextrin, hydroxypropyl β-cyclodextrin or γ-cyclodextrin was charged to each of the sample bottles in amounts of […] (cyclodextrin content: 0.16% w/v), 2.5 mg (cyclodextrin content: 1% w/v) or 12.5 mg (cyclodextrin content: 5% w/v), respectively. No cyclodextrin was charged in one sample bottle, which was made control. After stirring at room temperature for 12 hours, the concentration of FR115224 substance in each aqueous phase was measured to determine the solubility of FR115224 substance.

`C(=C\c1ccccc1)/CN1CCN(C(c2ccccc2)c2ccccc2)CC1` [Cinnarizine]: the “Increase of water solubility by inclusion compound with β-cyclodextrin” value in data set [1] was “about 5 times”.

Regarding `CCCCCc1ccccc1CCC(=O)N[C@@H]1C(=O)N(C)/C(=C/c2ccc(O)cc2)C(=O)N[C@@H](CC(C)C)C(=O)N[C@H](Cc2ccccc2)C(=O)N[C@@H]([C@H](C)O)C(=O)N[C@@H](CC(N)=O)C(=O)N[C@@H](CO)C(=O)O[C@@H]1C` [FR115224 substance] (X1-T[X2]L[dF][aThr]NS; ester 1-C), in data set [2] (conclusion from Table 1), the “Effect of cyclodextrin on the solubility of FR115224 substance in water” value is listed as “markedly increase”. Moreover, the “Solubility of FR115224 substance” value in data set [2] (no cyclodextrin (0 % w/v, control), stirred 12 hours) came out at 0.003 % w/v; in data set [2] (hydroxypropyl β-cyclodextrin 0.16 % w/v, 12 hours) it was 0.009 % w/v; in data set [2] (hydroxypropyl β-cyclodextrin 1 % w/v, 12 hours), 0.06 % w/v; in data set [2] (hydroxypropyl β-cyclodextrin 5 % w/v, 12 hours) it was 0.49 % w/v; in data set [2] (α-cyclodextrin 0.16 % w/v, 12 hours), 0.008 % w/v; in data set [2] (α-cyclodextrin 1 % w/v, 12 hours) it was 0.03 % w/v. Also, the “Solubility of FR115224 substance” value in data set [2] (α-cyclodextrin 5 % w/v, 12 hours) came out at 0.14 % w/v; in data set [2] (β-cyclodextrin 0.16 % w/v, 12 hours), 0.013 % w/v; in data set [2] (β-cyclodextrin 1 % w/v, 12 hours) it was 0.11 % w/v; in data set [2] (β-cyclodextrin 5 % w/v, 12 hours), 0.34 % w/v; in data set [2] (γ-cyclodextrin 0.16 % w/v, 12 hours) it was 0.006 % w/v; in data set [2] (γ-cyclodextrin 1 % w/v, 12 hours) it was 0.03 % w/v. Further, in data set [2] (γ-cyclodextrin 5 % w/v, 12 hours), the “Solubility of FR115224 substance” value is 0.16 % w/v.
